From ChEMBL document CHEMBL1201862, “PubChem BioAssay data set” (2004)
Active and inactive are the calls of the source.

Columns and labels:
[1] = biological target: T1, Serine/threonine-protein phosphatase (Candida dubliniensis (strain CD36 / CBS 7987 / NCPF 3949 / NRRLY-17841) (Yeast), UniProt B9W6M3); assay: blockers of CaCl2-induced CDRE-lacZ signaling – S. cerevisiae, luminescence, secondary, dose response (AID 2388); type: functional, cell-based;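 further: yeast reporter cells carrying a calcineurin-responsive lacZ construct stimulated with calcium chloride; luminescent beta-galactosidase reporter signal in whole cells rather than isolated phosphatase activity; potency for inhibition where a drop in reporter signal means calcineurin blockade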
T1 sequence (B9W6M3 whole entry): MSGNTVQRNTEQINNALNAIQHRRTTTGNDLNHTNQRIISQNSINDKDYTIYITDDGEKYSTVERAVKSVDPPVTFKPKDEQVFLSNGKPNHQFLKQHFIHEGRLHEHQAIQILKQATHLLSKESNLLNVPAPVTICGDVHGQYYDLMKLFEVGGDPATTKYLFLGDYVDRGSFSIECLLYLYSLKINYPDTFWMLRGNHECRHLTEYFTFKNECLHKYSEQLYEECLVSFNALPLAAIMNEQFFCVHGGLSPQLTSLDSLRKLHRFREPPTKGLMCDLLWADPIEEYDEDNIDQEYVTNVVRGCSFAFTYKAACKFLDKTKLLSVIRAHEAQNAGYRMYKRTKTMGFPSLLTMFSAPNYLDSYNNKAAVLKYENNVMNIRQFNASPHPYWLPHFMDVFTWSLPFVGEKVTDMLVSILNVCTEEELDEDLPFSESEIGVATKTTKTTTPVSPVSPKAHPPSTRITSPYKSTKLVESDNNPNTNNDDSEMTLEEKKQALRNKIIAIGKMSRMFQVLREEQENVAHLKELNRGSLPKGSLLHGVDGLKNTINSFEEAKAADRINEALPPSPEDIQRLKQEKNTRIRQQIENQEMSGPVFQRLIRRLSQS

[2] = biological target: ATP-dependent molecular chaperone HSP82 (Candida albicans (strain WO-1) (Yeast), UniProt C4YTQ8); assay: steroid-induced GRE reporter decrease in yeast – S. cerevisiae, luminescence, Hsp90 inhibitor project, dose response (AID 2400); type: functional, cell-based;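 further: beta-galactosidase luminescence from glucocorticoid response element reporter as proxy for Hsp90 function; inhibitor potency where signal loss means Hsp90 inhibition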
[3] = biological target: T2, Sentrin-specific protease 7 (Homo sapiens, UniProt Q9BQF6); type: functional;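 further: Luminescence-based dose-response confirmation of ultra-high-throughput screening hits, measuring inhibition of SENP7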
T2 sequence (Q9BQF6 whole entry): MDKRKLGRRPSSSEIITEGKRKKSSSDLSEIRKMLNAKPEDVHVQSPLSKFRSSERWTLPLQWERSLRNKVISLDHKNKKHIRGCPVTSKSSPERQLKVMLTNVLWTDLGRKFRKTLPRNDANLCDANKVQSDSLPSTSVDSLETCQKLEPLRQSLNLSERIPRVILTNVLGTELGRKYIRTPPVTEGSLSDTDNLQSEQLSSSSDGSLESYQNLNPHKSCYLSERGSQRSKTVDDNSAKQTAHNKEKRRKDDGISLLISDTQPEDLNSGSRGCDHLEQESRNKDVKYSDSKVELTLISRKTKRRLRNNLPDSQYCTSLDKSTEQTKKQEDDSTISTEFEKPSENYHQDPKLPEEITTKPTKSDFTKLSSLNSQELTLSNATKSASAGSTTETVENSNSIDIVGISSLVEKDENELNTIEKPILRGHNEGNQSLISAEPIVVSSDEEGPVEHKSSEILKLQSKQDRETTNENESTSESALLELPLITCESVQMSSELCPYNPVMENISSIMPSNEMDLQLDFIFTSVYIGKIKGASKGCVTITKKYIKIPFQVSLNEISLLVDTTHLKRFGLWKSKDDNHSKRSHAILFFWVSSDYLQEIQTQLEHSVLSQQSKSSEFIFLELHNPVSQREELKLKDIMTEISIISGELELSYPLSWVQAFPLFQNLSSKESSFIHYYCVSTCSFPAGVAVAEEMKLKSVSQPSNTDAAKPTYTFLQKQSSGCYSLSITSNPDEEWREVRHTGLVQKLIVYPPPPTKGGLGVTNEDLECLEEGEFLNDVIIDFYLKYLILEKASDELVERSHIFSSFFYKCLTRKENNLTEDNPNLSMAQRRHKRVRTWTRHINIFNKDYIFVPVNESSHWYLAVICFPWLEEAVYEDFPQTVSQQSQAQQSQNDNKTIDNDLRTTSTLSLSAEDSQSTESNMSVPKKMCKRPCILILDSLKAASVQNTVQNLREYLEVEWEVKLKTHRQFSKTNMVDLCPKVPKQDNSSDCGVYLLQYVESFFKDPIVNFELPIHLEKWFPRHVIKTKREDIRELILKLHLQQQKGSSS

Caspase-3 = biological target: T3, Caspase-3 (Homo sapiens, UniProt P42574); type: functional;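 further: Dose-response selectivity test against caspase-3 for candidate inhibitors of sentrin-specific proteases (SENPs)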
T3 sequence (P42574 whole entry): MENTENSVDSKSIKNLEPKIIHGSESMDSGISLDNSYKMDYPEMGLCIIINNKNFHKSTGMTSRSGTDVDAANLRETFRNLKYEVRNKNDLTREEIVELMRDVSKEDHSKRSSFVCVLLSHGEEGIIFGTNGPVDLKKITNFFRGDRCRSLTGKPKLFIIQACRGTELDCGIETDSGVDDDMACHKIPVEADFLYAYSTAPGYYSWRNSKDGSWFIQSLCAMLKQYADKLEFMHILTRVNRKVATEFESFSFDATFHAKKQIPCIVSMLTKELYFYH

[4] = biological target: Tyrosyl-DNA phosphodiesterase 2 (Homo sapiens, UniProt O95551); assay: potency against TDP2 phosphodiesterase activity – biochemical, epi absorbance, IC50, dose response (AID 743297)
[5] = biological target: Serine/threonine-protein phosphatase (Homo sapiens, UniProt Q9BPW0); assay: inhibition of protein phosphatase 5 activity – biochemical, fluorescence, dose response (AID 2395)
[6] = biological target: T4, Zinc finger protein mex-5 (Caenorhabditis elegans, UniProt Q9XUB2); assay: potency of MEX-5 RNA-binding blockers – biochemical, C. elegans, fluorescence polarization, dose response (AID 1960)
T4 sequence (Q9XUB2 whole entry): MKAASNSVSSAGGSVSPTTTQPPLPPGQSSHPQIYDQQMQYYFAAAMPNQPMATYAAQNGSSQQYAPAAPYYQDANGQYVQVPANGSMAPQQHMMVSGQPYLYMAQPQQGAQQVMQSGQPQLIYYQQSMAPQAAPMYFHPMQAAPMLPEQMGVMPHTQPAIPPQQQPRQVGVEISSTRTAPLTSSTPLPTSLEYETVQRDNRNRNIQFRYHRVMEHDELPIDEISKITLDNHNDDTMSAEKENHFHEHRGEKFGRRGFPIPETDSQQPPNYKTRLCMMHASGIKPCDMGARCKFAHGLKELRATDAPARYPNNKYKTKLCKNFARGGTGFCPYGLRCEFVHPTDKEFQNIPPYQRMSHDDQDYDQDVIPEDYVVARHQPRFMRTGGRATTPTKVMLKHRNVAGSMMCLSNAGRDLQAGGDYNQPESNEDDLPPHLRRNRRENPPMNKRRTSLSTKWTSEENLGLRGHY

[7] = biological target: Mitochondrial peptide methionine sulfoxide reductase (Bos taurus, UniProt P54149); type: functional;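 further: absorbance read-out, biochemical high-throughput dose-response screen for MsrA inhibitors, confirmatory; recombinant bovine MsrA coupled to E. coli TrxB with NADPH and selenocystamine; potency is for inhibitors of MsrA activity on DMSO substrate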
[8] = biological target: Serine/threonine-protein phosphatase PP1-alpha catalytic subunit (Homo sapiens, UniProt P62136); assay: inhibition of protein phosphatase 1 activity – biochemical, fluorescence, dose response (AID 2394)
Streptococcus = assay: GAS UMAA2166 growth inhibition – luminescence, BacTiterGlo, counter-screen for streptokinase expression inhibitor project, dose response (AID 1915); type: functional, organism-based;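 further: potency for reduction of bacterial viability or growth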

Serine/threonine-protein phosphatase PP1-alpha catalytic subunit, sequence (P62136 whole entry): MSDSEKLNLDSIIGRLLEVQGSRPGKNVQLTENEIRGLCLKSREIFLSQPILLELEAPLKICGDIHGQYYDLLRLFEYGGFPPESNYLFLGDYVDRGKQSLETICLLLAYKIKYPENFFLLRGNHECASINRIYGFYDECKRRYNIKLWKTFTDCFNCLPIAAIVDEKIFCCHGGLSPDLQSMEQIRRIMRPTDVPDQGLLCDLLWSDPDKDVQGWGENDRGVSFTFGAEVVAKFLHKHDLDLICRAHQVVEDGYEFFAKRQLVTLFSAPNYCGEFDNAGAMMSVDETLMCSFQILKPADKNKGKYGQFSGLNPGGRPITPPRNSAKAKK
Tyrosyl-DNA phosphodiesterase 2, sequence (O95551 whole entry): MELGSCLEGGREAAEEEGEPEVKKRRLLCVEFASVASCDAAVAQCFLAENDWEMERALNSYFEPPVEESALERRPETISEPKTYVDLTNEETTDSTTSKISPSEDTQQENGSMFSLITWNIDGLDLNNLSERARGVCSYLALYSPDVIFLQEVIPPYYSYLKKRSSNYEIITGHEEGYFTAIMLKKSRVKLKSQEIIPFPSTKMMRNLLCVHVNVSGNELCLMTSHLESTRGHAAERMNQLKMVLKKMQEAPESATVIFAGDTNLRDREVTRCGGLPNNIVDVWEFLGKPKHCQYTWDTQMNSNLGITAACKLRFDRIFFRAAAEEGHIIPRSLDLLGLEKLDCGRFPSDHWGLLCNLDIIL
Mitochondrial peptide methionine sulfoxide reductase, sequence (P54149 whole entry): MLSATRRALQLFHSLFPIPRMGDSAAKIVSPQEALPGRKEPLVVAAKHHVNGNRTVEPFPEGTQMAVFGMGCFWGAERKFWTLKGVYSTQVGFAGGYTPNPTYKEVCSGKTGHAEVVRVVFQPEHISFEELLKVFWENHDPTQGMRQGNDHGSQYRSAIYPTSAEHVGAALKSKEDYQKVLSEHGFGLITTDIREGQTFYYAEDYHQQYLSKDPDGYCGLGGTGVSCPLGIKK
ATP-dependent molecular chaperone HSP82, sequence (C4YTQ8 whole entry): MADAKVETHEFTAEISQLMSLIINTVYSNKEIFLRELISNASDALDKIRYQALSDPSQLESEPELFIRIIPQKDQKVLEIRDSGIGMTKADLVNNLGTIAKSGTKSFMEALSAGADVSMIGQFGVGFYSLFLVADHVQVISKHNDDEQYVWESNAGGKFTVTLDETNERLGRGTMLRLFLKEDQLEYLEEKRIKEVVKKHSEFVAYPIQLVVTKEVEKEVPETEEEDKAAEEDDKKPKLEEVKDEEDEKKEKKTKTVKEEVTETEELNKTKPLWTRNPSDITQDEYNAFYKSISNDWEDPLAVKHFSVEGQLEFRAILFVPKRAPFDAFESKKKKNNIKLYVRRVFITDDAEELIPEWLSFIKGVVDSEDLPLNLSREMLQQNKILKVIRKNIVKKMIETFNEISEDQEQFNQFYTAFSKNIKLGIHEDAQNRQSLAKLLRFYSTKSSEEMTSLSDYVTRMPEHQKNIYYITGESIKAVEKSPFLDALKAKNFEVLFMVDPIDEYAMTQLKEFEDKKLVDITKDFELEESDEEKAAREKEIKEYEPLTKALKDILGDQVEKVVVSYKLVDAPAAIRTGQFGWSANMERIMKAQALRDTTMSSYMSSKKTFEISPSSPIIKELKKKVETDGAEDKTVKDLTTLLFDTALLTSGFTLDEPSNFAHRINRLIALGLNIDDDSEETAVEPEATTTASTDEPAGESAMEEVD
Serine/threonine-protein phosphatase (Homo sapiens, UniProt Q9BPW0), sequence (Q9BPW0 whole entry): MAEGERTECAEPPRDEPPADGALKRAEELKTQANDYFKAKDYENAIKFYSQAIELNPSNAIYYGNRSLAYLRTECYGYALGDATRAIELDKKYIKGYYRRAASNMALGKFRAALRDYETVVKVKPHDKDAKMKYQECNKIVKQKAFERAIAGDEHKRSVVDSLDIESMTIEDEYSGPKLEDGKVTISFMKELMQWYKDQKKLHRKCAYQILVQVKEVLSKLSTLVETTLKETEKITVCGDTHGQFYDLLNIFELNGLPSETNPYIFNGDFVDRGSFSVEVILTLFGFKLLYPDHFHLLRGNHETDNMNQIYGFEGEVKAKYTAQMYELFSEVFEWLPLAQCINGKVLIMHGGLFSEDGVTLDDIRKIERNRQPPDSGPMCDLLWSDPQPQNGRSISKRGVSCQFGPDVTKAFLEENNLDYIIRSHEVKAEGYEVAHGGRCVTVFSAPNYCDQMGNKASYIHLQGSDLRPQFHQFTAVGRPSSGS

SMILES	EC50 [1]	EC50 [2]	IC50 [3]	IC50 (Caspase-3)	IC50 [4]	IC50 [5]	EC50 [6]	IC50 [7]	IC50 [8]	EC50 (Streptococcus)
Cc1ccc(NC2=CC(=O)C(=O)c3ccccc32)cc1	> 180 µM (inactive)	40.7 µM (active)	36.7 µM (active)	31 µM (active)	26.2 µM (inactive)	–	–	–	–	–
O=C(O)c1ccc(S(=O)(=O)/N=C2\C=C(Nc3ccccc3F)C(=O)c3ccccc32)cc1	–	–	–	–	–	> 67 µM (not active)	60.8 µM (active)	14.2 µM (inactive)	15.5 µM (not active)	4.05 µM (active)
